Test results as given in patent US11576933B2, “Compositions and methods for an improved antitumor immune response” (EFFECTOR THERAPEUTICS, INC., priority 2017, dated 2023).

How the values were obtained:
[1] = test system: fibroblasts (Lonza #CC-2512); experiment: α-SMA protein level by western blot in fibroblasts co-treated with TGFβ (fibroblast-to-myofibroblast transformation); assay type: cell-based; settings: 24 hours co-incubation with 10 ng/ml TGFβ, inhibitor 0, 1.5, 4, 13 or 40 nM, FIG. 1
Protocol: (§1) Myofibroblasts are believed to be associated with tumor growth, vascularization, and metastasis (see, e.g., Webber et al., Cancer Res. 70:9621, 2010). The ability of Cmp1 or Cmp2 to inhibit the TGFβ-mediated fibroblast-to-myofibroblast transformation and components of the extracellular matrix was evaluated in fibroblasts.
(§2) Briefly, fibroblasts (Lonza #CC-2512; cell passage numbers 2 through 5 were used for all experiments) were seeded (Day 0) and cultured in Dulbecco's modified Eagle medium (DMEM) supplemented with 10% fetal bovine serum (FBS), penicillin, streptomycin and glutamax (Invitrogen) at 37° C. in a humidified incubator with 5% CO2 overnight. On Day 1, cells were washed with phosphate buffered saline (PBS), and then incubated for 48 hours in fresh serum-free DMEM supplemented with penicillin, streptomycin, and glutamax. […]
(§3) After a 24-hour incubation period, the effects of eIF4A inhibition on fibroblast transformation and production of extracellular matrix components were evaluated. Smooth muscle actin (α-SMA) protein levels were analyzed by western blot. Procollagen type 1 C-Peptide (PIPC) levels were analyzed by collecting culture media, centrifuging to pellet cellular debris, and quantifying using the (PIP) EIA kit (Clontech, Cat. No. MK101) according to the manufacturer's instructions.

[2] = test system: fibroblasts (Lonza #CC-2512); experiment: Procollagen type 1 C-Peptide (PIPC) secretion from fibroblasts co-treated with TGFβ, (PIP) EIA kit; assay type: cell-based; settings: 24 hours co-incubation with 10 ng/ml TGFβ; inhibitor 0, 1.5, 4, 13 or 40 nM; FIGS. 2A and 2B
Protocol: as §1, §2, §3

[3] = test system: KPC-3 (mouse pancreatic carcinoma) tumor; experiment: Tumor infiltrating lymphocytes (CD3+/CD8+ IHC) in allograft KPC-3 tumor model; assay type: in vivo; settings: parenterally, C57BL/6J mice, versus vehicle; for CD3+ T cells in the KPC-3 tumor samples: FIG. 4B
Protocol: To evaluate the effect of an eIF4A inhibitor on tumor infiltrating lymphocytes, an allograft tumor model was used. Briefly, KPC-3 (mouse pancreatic carcinoma) cells grown in DMEM supplemented with 10% FBS were harvested during exponential growth and counted for tumor inoculation in immune competent C57BL/6J mice. Each mouse was inoculated subcutaneously with 0.1×10^6 KPC-3 tumor cells in the right flank region in 0.1 mL volume comprising a 1:1 ratio (volume to volume) of cells in growth media and Matrigel® matrix (BD Biosciences, San Jose Calif.). Tumors were grown to 100-200 mm^3 prior to study initiation. Before beginning treatment, all animals were weighed and tumor volumes measured using a caliper. Since the tumor volume can affect the effectiveness of any given treatment, mice were randomly assigned into vehicle and test article treatment groups after tumors had reached a similar size. Each study group contained 8 mice, with each group receiving either vehicle (D5W) or Cmp1 administered parenterally on two dosing schedules (0.33 mg/kg Q2D and 1 mg/kg Q1W for 17 days). Following treatment, tumor biopsies were collected for four representative animals from each treatment group, formalin-fixed, and paraffin-embedded. Tumor samples were sectioned and stained with anti-CD3 and anti-CD8 antibodies or isotype control. A hematoxylin nuclear counterstain was also applied. Image analysis and quantification were conducted using ImageDx™. Increased CD3^+ and CD8^+ T cell staining within the tumor sample for eIF4A inhibitor treatment relative to vehicle indicates an increase in infiltrating lymphocytes into the tumor.

[4] = test system: myofibroblasts; experiment: Procollagen type 1 C-Peptide (PIPC) secretion from pre-formed myofibroblasts, (PIP) EIA kit; assay type: cell-based; settings: myofibroblasts pre-formed with 10 ng/ml TGFβ 24 hours, washed; inhibitor 0-100 nM for 48 hours; FIG. 3B
Protocol: (§4) Briefly, fibroblasts (Lonza #CC-2512; cell passage numbers 2 through 5 were used for all experiments) were seeded (Day 0) and cultured in Dulbecco's modified Eagle medium (DMEM) supplemented with 10% fetal bovine serum (FBS), penicillin, streptomycin and glutamax (Invitrogen) at 37° C. in a humidified incubator with 5% CO2 overnight. On Day 1, cells were washed with phosphate buffered saline (PBS), and then incubated for 72 hours in fresh serum-free DMEM supplemented with penicillin, streptomycin, and glutamax. On Day 4, cells were washed, followed by addition of fresh serum-free DMEM containing 10 ng/ml TGFβ, and cultured for 24 hours. On Day 5, cells were washed, followed by addition of fresh serum-free DMEM containing eIF4A inhibitor Cmp1 (0, 1.2, 3.7, 11.1, 33.3 or 100 nM), and cultured. Controls included untreated cells. At 48 hours post-addition of eIF4A inhibitor, 300 ul of culture media was harvested, centrifuged to pellet cellular debris, and frozen at −80° C. TGFβ1 in the culture medium was quantified using the Human TGF-B1 ELISA kit (R&D System DY240-05) according to the manufacturer's instructions. Procollagen type 1 C-Peptide (PIPC) levels were analyzed using the (PIP) EIA kit (Clontech, Cat. No. MK101) according to the manufacturer's instructions.

[5] = test system: myofibroblasts; experiment: TGFβ secretion from pre-formed myofibroblasts, Human TGF-B1 ELISA kit; assay type: cell-based; settings: myofibroblasts pre-formed with 10 ng/ml TGFβ 24 hours, washed; inhibitor 0-100 nM for 48 hours; FIG. 3A
Protocol: as §4

Compound	α-SMA protein level (ratio of α-SMA to β-actin) [1]	procollagen type I secretion (PIPC) [2]	CD3+ T cells in the KPC-3 tumor samples ([3]; 0.3 mg/kg Q2D for 17 days)	CD3+ T cells in the KPC-3 tumor samples ([3]; 1 mg/kg Q1W for 17 days)	CD8+ T cells in the KPC-3 tumor samples ([3]; 1 mg/kg Q1W for 17 days, FIG. 4C)	procollagen type I levels [4]	levels of secreted TGFβ [5]
COc1nc(Cl)cc2c1[C@]1(O)[C@H](O)[C@H](CN(C)C)[C@@H](c3ccccc3)[C@]1(c1ccc(C#N)cc1)O2 [Cmp2, 4-((5aR,6S,7S,8R,8aS)-3-chloro-7-((dimethylamino)methyl)-8,8a-dihydroxy-1-methoxy-6-phenyl-6,7,8,8a-tetrahydro-5aH-cyclopenta[4,5]furo[3,2-c]pyridin-5a-yl)benzonitrile]	dose-dependent reduction	blocked the increase					
COc1cc2c(c(OC)n1)[C@]1(O)[C@H](O)[C@H](CN(C)C)[C@@H](c3ccccc3)[C@]1(c1ccc(C#N)cc1)O2 (racemic) [Cmp1]	dose-dependent reduction	blocked the increase	significant increase	significant increase	significant increase	dose-dependent decrease	reduced the levels of secreted TGFβ in a dose-dependent manner
